Consider 10 molecules from PubChem BioAssay (NCI).

“And” between values parts separate entries of the source, which are not always exact repeats. Equal values may be shown once.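 Where inhibition never reached the appropriate level, the endpoint shown equals the highest concentration tested. Otherwise, values were interpolated linearly from a five-concentration, 48-hour dose response in 96-well plates. GI50 is the concentration that inhibits growth by half. The concentration for full growth arrest is given as TGI.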

Test systems include T-47D breast; SF-295 CNS; PC-3 prostate; OVCAR-5 ovarian; 786-0 renal; UACC-62 melanoma; SF-268 CNS; MDA-MB-435; U251 CNS; SNB-19 CNS.
Common to all, as to experiment: NCI tumour cell line growth inhibition, 48 h

`O=C(Nc1ccc(Oc2ccc(Nc3nc4ccccc4s3)cc2)cc1)Nc1ccc(Cl)c(C(F)(F)F)c1`: the GI50 with T-47D breast was 1.21 µM; in the assay with SF-295 CNS it was 1.66 µM; with PC-3 prostate, 1.07 µM; in the assay on OVCAR-5 ovarian, 1.64 µM; with 786-0 renal it was 1.79 µM; in the assay with UACC-62 melanoma it was 1.23 µM. The GI50 was 1.94 µM in the assay on SF-268 CNS, 1.48 µM in the assay on MDA-MB-435, 1.61 µM with U251 CNS and 1.71 µM with SNB-19 CNS. Further, the TGI in the assay with T-47D breast was determined as 3.96 µM; with SF-295 CNS, 3.41 µM; in the assay on PC-3 prostate it was 2.79 µM; with OVCAR-5 ovarian, 3.61 µM; with 786-0 renal it was 4.63 µM; in the assay on UACC-62 melanoma it was 2.57 µM. Moreover, the TGI turned out to be 4.74 µM in the assay with SF-268 CNS, 3 µM in the assay on MDA-MB-435, 3.55 µM with U251 CNS and 3.62 µM with SNB-19 CNS.
Turning to `COc1cc(C2CC(C)(O)Oc3cc4c(cc32)OCO4)cc(OC)c1OC` (stereo not drawn), the TGI with T-47D breast was more than 100 µM; in the assay with OVCAR-5 ovarian, more than 100 µM; in the assay with 786-0 renal, more than 100 µM; with UACC-62 melanoma, more than 100 µM; in the assay on SF-268 CNS, more than 100 µM; in the assay on U251 CNS, 20.1 µM. The molecule further came in with a TGI in the assay with SNB-19 CNS of more than 100 µM.
In the case of `Cc1cc(I)cc(CN(CCCN(C)C)C(C)C)c1O`, the GI50 in the assay on T-47D breast was 15.2 µM; in the assay on PC-3 prostate, 14 µM; in the assay on OVCAR-5 ovarian, 19.7 µM; in the assay on 786-0 renal, 15.7 µM; in the assay on UACC-62 melanoma it was 15.2 µM; in the assay with SF-268 CNS, 17.1 µM. For the same molecule, the GI50 in the assay with MDA-MB-435 is 17.3 µM; in the assay on U251 CNS, 18.5 µM; with SNB-19 CNS, 18.4 µM. The TGI is 39.8 µM in the assay with T-47D breast; 30.4 µM in the assay with PC-3 prostate; 53.5 µM in the assay with OVCAR-5 ovarian; 30.5 µM with 786-0 renal; 33.7 µM with UACC-62 melanoma; 32.9 µM in the assay with SF-268 CNS. Further, the TGI in the assay with MDA-MB-435 turned out to be 35.9 µM; in the assay on U251 CNS, 36.1 µM; with SNB-19 CNS, 42.5 µM.
In the case of `Cc1csc(-c2nnc(Nc3ccc(Oc4ncccc4-c4ccnc(N)n4)cc3)c3ccccc23)c1`, the GI50 in the assay on T-47D breast was 5 µM; in the assay on SF-295 CNS, 2.98 µM; in the assay with PC-3 prostate, more than 27.1 µM; with OVCAR-5 ovarian it was more than 100 µM; with 786-0 renal, more than 100 µM; in the assay with UACC-62 melanoma it was 0.767 µM. The GI50 with MDA-MB-435 was 2.45 µM; in the assay with U251 CNS it was more than 100 µM; in the assay on SNB-19 CNS it was more than 100 µM. Further, the TGI in the assay on T-47D breast, with SF-295 CNS, with PC-3 prostate, in the assay on OVCAR-5 ovarian, in the assay with 786-0 renal and in the assay on UACC-62 melanoma was more than 100 µM throughout. The TGI in the assay on MDA-MB-435, with U251 CNS and in the assay with SNB-19 CNS was more than 100 µM in each case.
Take `COc1ccc(C2[C@@H](c3ccccc3)C(=O)N2c2cc(OC)c(OC)c(OC)c2)cc1F` (stereo partly drawn): the GI50 in the assay with T-47D breast is more than 100 µM; in the assay on SF-295 CNS, 0.029 µM; in the assay on PC-3 prostate, 0.0403 µM; in the assay on OVCAR-5 ovarian, 0.0517 µM; with 786-0 renal, 0.0314 µM; in the assay with UACC-62 melanoma, 0.0543 µM. Also, the results for the GI50 in the assay with SF-268 CNS, in the assay with U251 CNS and in the assay with SNB-19 CNS were 0.0443 µM, 0.0359 µM and 0.0499 µM, respectively. The TGI was more than 100 µM in the assay with T-47D breast; 1.78 µM in the assay on SF-295 CNS; more than 100 µM in the assay with PC-3 prostate; more than 100 µM with OVCAR-5 ovarian; more than 100 µM in the assay with 786-0 renal; more than 100 µM with UACC-62 melanoma. For the same molecule, the TGI with SF-268 CNS, in the assay on U251 CNS and in the assay with SNB-19 CNS was more than 100 µM each time.
As to `COc1cc(/C(C#N)=C/c2nc3c(N4CCOCC4)nc(Cl)nc3n2C)cc(OC)c1OC`, the TGI with T-47D breast was 5.63 µM; with SF-295 CNS, 1.49 µM; in the assay with PC-3 prostate it was 7.62 µM; in the assay with OVCAR-5 ovarian it was more than 100 µM; with 786-0 renal, 3.12 µM; in the assay on UACC-62 melanoma, 15.5 µM. Also, the TGI is more than 26.8 µM in the assay with SF-268 CNS, more than 32.2 µM with U251 CNS and more than 100 µM in the assay with SNB-19 CNS. In addition, the GI50 was less than 0.01 µM in the assay with SF-295 CNS; less than 0.01 µM in the assay with PC-3 prostate; less than 0.01 µM with OVCAR-5 ovarian; less than 0.01 µM with 786-0 renal; less than 0.01 µM in the assay with UACC-62 melanoma; less than 0.0118 µM in the assay with SF-268 CNS. Also, the GI50 with U251 CNS and in the assay on SNB-19 CNS was less than 0.01 µM in each case.
In the case of `COc1ccc(/C=N/NC(=O)c2cccc3cc[nH]c23)cc1O`, the GI50 was 5.74 µM in the assay with T-47D breast; 0.736 µM in the assay on SF-295 CNS; 2.05 µM with PC-3 prostate; more than 54.6 µM with OVCAR-5 ovarian; 5.13 µM in the assay on 786-0 renal; 0.878 µM in the assay with UACC-62 melanoma. Also, the GI50 in the assay on SF-268 CNS is 4.01 µM; with U251 CNS, 2.4 µM; in the assay on SNB-19 CNS, 4.07 µM. The TGI is more than 100 µM in the assay on T-47D breast; more than 24.8 µM with SF-295 CNS; more than 100 µM in the assay on PC-3 prostate; more than 100 µM with OVCAR-5 ovarian; more than 100 µM in the assay on 786-0 renal; more than 35.1 µM with UACC-62 melanoma. In addition, the TGI in the assay with SF-268 CNS, in the assay with U251 CNS and with SNB-19 CNS was more than 100 µM each time.
With `CC1=C2C(=C[C@@](C)(CO)[C@@H]2O)C(=O)[C@](C)(O)C12CC2`, the TGI in the assay on T-47D breast was 0.0545 µM; in the assay on PC-3 prostate, 0.0661 µM and 0.0121 µM; with OVCAR-5 ovarian, 0.0664 µM and 0.0689 µM; in the assay with 786-0 renal, 0.0143 µM and 0.0638 µM; in the assay with UACC-62 melanoma, 0.0265 µM; in the assay with SF-268 CNS, 0.0192 µM and 0.106 µM. Also, the TGI in the assay on MDA-MB-435 is 0.0312 µM; in the assay on U251 CNS, 0.0243 µM and 0.0794 µM; in the assay with SNB-19 CNS, 0.0921 µM.
`Oc1[nH]c2ccccc2c1N=Nc1nc(-c2ccc(Br)cc2)cs1`: the TGI in the assay with SF-295 CNS was 67.7 µM; with PC-3 prostate it was more than 100 µM; in the assay on OVCAR-5 ovarian, more than 100 µM; in the assay on 786-0 renal, 35.8 µM; in the assay on UACC-62 melanoma, 63.2 µM; in the assay on SF-268 CNS, 46.8 µM. The results for the TGI in the assay on MDA-MB-435, with U251 CNS and with SNB-19 CNS were more than 100 µM, 28.1 µM and 40.7 µM, respectively.
On to `O=C1CN(c2cccc(Cl)c2)C(=O)CN1CCN1CC(=O)N(c2cccc(Cl)c2)CC1=O`, for which the TGI in the assay on SF-295 CNS, with PC-3 prostate, in the assay with OVCAR-5 ovarian, in the assay with 786-0 renal, with UACC-62 melanoma and in the assay with SF-268 CNS was more than 100 µM each time. The TGI in the assay with MDA-MB-435, in the assay with U251 CNS and with SNB-19 CNS was more than 100 µM each time.
